The values below come from patent US20210386768A1, “COMBINATION MEDICINE” (FUJIFILM Corporation, priority 2019, published 2021).

What all share (assay type): cell-based, human
Test [1] concerns FLT3-ITD mutation-positive leukemia cell line MV-4-11. Put plainly: Proliferation inhibitory activity against MV-4-11 by combined use of anti-cancer agents (CellTiter-Glo, combination index). As to the method:
<Evaluation of Proliferation Inhibitory Activity Against FLT3-ITD Mutation-Positive Leukemia Cell Line MV-4-11 by Combined Use of Anti-Cancer Agent>
MV-4-11 cells which are a human FLT3-ITD mutation-positive leukemia cell line were subcultured in an RPMI-1640 medium containing 10% serum. During this test, all cell cultures were performed in a CO2 incubator (setting: 37° C., 5% CO2, water vapor saturated). Cells were diluted with a medium containing 10% serum to 1,000 cells/well/20 μL and seeded on a 384-well plate.
After being serially diluted with DMSO and further being diluted with a medium containing 10% serum, each of the test substance solutions having a concentration 10 times the final treatment concentration was prepared.
(§1) In addition, a group (a positive control group) in which only a solvent containing no drugs was added to a well in which cells were plated and a group (a negative control group) in which only a solvent containing no drugs was added to a well in which only a medium was added were prepared.
After the addition of the drug, cells were cultured for 3 days, and the cell viability was evaluated using CellTiter-Glo (registered trade mark) Reagent (Cat. #G7570, manufactured by Promega Corporation) using the amount of ATP in the cells as an indicator.
(§2) The suppression rate was determined by assuming that the amount of luminescence signal in the negative control group corresponded to the suppression of cell viability by 100% and the amount of luminescence signal in the positive control group corresponded to the suppression of cell viability by 0%. The concentration (IC50 value) at which cell viability is suppressed by 50% was calculated using XLFit (registered trade mark) software Ver. 3 (manufactured by ITOCHU Techno-Solutions Corporation). The suppression effect (Fa, the fraction affected by the dose) was calculated by dividing the suppression rate by 100.
(§3) The combination effect of the present invention was determined by calculating the combination index (CI), which is a quantitative indicator of the combination effect, using CalcuSyn (BIOSOFT) based on the value of the suppression effect.
(§4) In the table, “Fa around 0.5” and “Fa around 0.75” mean the effect of suppressing the cell viability by about 50% and about 75%, respectively, in a case where drugs are used in combination.
(ATP-based viability assays read luminescence as a measure of living cells.)

Test [2] deals with Cell derived from FLT3-ITD mutation-positive leukemia patient. Put plainly: Proliferation inhibitory activity against cells derived from a leukemia patient by combined use (CellTiter-Glo, combination index), FLT3-ITD positive. As for the experimental part:
(§5) <Evaluation of Proliferation Inhibitory Activity Against Cell Derived from Leukemia Patient by Combined Use of Existing Anti-Cancer Agent>
(§6) Monocytes isolated from bone marrow or peripheral blood of two leukemia patients (one patient is FLT3-ITD mutation-positive, and the other patient is FLT3-ITD mutation-negative) were used and cultured in MethoCult™ H4534 Classic Without EPO (Cat. #H4534, manufacture by […] technologies). During this test, all cell cultures were performed in a CO2 incubator (setting: 37° C., 5% CO2, water vapor saturated). Cells were diluted with medium to 5,000 cells/well/90 μL and seeded on a 96-well plate.
(§7) After serially diluting with DMSO and further diluting with a medium, each of the test substance solutions having a concentration 10 times the final treatment concentration was prepared.
as §1
(§8) After the addition of the drug, cells were cultured for 7 or 8 days, and the cell viability was evaluated using CellTiter-Glo (registered trade mark) Reagent (Cat. #G7570, manufactured by Promega Corporation) using the amount of ATP in the cells as an indicator.
as §2, §3, §4

Test [3] concerns Cell derived from FLT3-ITD mutation-negative leukemia patient. Put plainly: Proliferation inhibitory activity against cells derived from a leukemia patient by combined use (CellTiter-Glo, combination index), FLT3-ITD negative. As to the method: as §5, §6, §7, §1, §8, §2, §3, §4
The mark [4] stands for this setting: in combination with Compound A1, MV-4-11.
Where [5] appears, read: in combination with Compound A1.
Where [6] appears, read: in combination with Compound A1, concentration fixing ratio A1:decitabine 1:10, A1:venetoclax 1:1, 7 or 8 days.

With Venetoclax, the “combination index (CI), Fa around 0.5” value in test [1] (in combination with Compound A1 (succinate salt), concentration fixing ratio A1:decitabine 1:3,000, A1:venetoclax 1:120, MV-4-11, 3 days, average of 4 experiments, about 50% suppression of cell viability) is “++ (0.7 or more and less than 0.85, a moderate synergistic effect)”; in test [2] (setting [6]), “+++ (Less than 0.7, a strong synergistic effect)”; in test [3] (setting [6]), “+++ (Less than 0.7, a strong synergistic effect)”. Besides, the “combination index (CI), Fa around 0.75” value in test [1] (in combination with Compound A1 (succinate salt), concentration fixing ratio A1:decitabine 1:3,000, A1:venetoclax 1:120, MV-4-11, 3 days, average of 4 experiments, about 75% suppression of cell viability) is “+++ (Less than 0.7, a strong synergistic effect)”; in test [2] (setting [6]), “+++ (Less than 0.7, a strong synergistic effect)”; in test [3] (setting [6]), “+++ (Less than 0.7, a strong synergistic effect)”. Besides, the “combination effect in words, suppression effect around 0.5” value was “moderate synergistic effect” in test [1] (setting [4]), “strong synergistic effect” in test [2] (setting [5]) and “strong synergistic effect” in test [3] (setting [5]). Further, the “combination effect in words, suppression effect around 0.75” value in test [1] (setting [4]), in test [2] (setting [5]) and in test [3] (setting [5]) was “strong synergistic effect” throughout.
